Results as given in PubChem BioAssay (NCI).
Several values for one entry are separate records, joined by “and”; a condition that tells them apart may be missing. Identical values can stand only once.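 Each compound was tested at five concentrations against cells in 96-well plates for 48 hours. Here, GI50 denotes the concentration required for 50% inhibition of growth. Definition used: TGI = concentration required for complete inhibition of growth.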

Experiments:
Experiment in all cases: NCI tumour cell line growth inhibition, 48 h
LXFL 529 NSCLC = tested on: LXFL 529 NSCLC
XF 498 CNS = tested on: XF 498 CNS
TK-10 renal = tested on: TK-10 renal
DMS 114 small cell lung = tested on: DMS 114 small cell lung
SR leukemia = tested on: SR leukemia
SK-MEL-28 melanoma = tested on: SK-MEL-28 melanoma
EKVX NSCLC = tested on: EKVX NSCLC
M14 melanoma = tested on: M14 melanoma
SK-MEL-2 melanoma = tested on: SK-MEL-2 melanoma
DMS 273 small cell lung = tested on: DMS 273 small cell lung
SN12K1 renal = tested on: SN12K1 renal
SNB-78 CNS = tested on: SNB-78 CNS
NCI/ADR-RES ovarian = tested on: NCI/ADR-RES ovarian
MCF7 breast = tested on: MCF7 breast
P388/ADR leukemia = tested on: P388/ADR leukemia

Row | Structure (SMILES) | TGI (LXFL 529 NSCLC) | TGI (XF 498 CNS) | TGI (TK-10 renal) | TGI (DMS 114 small cell lung) | TGI (SR leukemia) | TGI (SK-MEL-28 melanoma) | TGI (EKVX NSCLC) | TGI (M14 melanoma) | TGI (SK-MEL-2 melanoma) | TGI (DMS 273 small cell lung) | TGI (SN12K1 renal) | TGI (SNB-78 CNS) | TGI (NCI/ADR-RES ovarian) | TGI (MCF7 breast) | TGI (P388/ADR leukemia) | GI50 (XF 498 CNS) | GI50 (SNB-78 CNS) | GI50 (NCI/ADR-RES ovarian) | GI50 (MCF7 breast) | GI50 (SK-MEL-2 melanoma)
1 | Nc1nn(CC(O)CO)c(=O)s1 (stereo not drawn) | > 100 µM | > 100 µM | > 100 µM | > 100 µM | > 100 µM | 9.86 µM | > 100 µM | > 100 µM | > 100 µM | > 100 µM |  |  |  |  |  |  |  |  |  | 
2 | N/C(=N\N=C\c1cc2c(cc1Cl)OCO2)NO |  | > 34.2 µM |  | > 100 µM |  | > 100 µM | > 100 µM |  | > 88.3 µM | > 77.8 µM | > 100 µM | > 100 µM | 57.2 µM | > 100 µM | > 81.3 µM |  |  |  |  | 
3 | O=C1OC(c2ccc(Cl)cc2)(c2ccc(Cl)cc2)c2c1ccc1ccccc21 | > 100 µM | > 100 µM | > 100 µM |  |  | > 100 µM | > 100 µM |  | > 100 µM | > 100 µM |  | > 100 µM |  |  |  |  |  |  |  | 
4 | CCOC(=O)C1=NN(c2ccc(Cl)cc2)C2=CC(C)=NN(C)C(=S)N21 |  |  | 62 µM |  | > 100 µM | > 100 µM | 81.9 µM | > 100 µM |  |  |  |  | > 100 µM |  |  |  |  |  |  | 
5 | C=CC[N+](CCO)(CCO)CCCCCCCCCCCCCCCCCC |  |  |  | 18.4 µM |  | 28 µM | 47.7 µM |  | 32.7 µM | 5.83 µM | 20.5 µM | 12.6 µM | 55.8 µM | > 44.8 µM | > 49 µM |  |  |  |  | 
6 | COc1ccc(/C=N/n2cnc3c(c2=O)S/C(=C2/SC(=S)N(c4ccc(C)cc4)C2=O)N3c2ccccc2)cc1 | > 100 µM |  | > 100 µM | > 100 µM | > 100 µM | > 100 µM | > 100 µM | > 100 µM | > 100 µM | > 100 µM |  |  |  |  |  |  |  |  |  | 
7 | C[C@H](CN1CC(=O)NC(=O)C1)N1CC(=O)NC(=O)C1 |  | > 100 µM |  |  |  | > 100 µM | > 100 µM |  |  | > 100 µM | > 100 µM | > 100 µM | > 100 µM | > 100 µM | > 96.4 µM |  |  |  |  | 
8 | C=C1C(=O)O[C@@H]2OC3(C)CCC4C(C)CCC1C42OO3 (stereo partly drawn) |  | 24.3 µM and 3.88 µM |  |  |  | 25.1 µM and 23.9 µM | 24.7 µM |  | 15.4 µM and 5.51 µM | 14.2 µM and 13.2 µM | 15.6 µM and 15.1 µM | 19.8 µM | 18.6 µM and 6.51 µM | 11.5 µM and 15 µM | 1.2 µM | 12 µM | 3.66 µM | 4.17 µM | 2.2 µM | 3.79 µM
